Measured values published in patent US11339130B1 (Blade Therapeutics, Inc., priority 2016, dated 2022).

Tested on: Bleomycin-induced pulmonary fibrosis
Assay: Bleomycin-induced pulmonary fibrosis in mice (14 d)
Type: in vivo
Design: concentration or dose not given beside the values
From the text: The method for inducing pulmonary fibrosis in mice is described in Current Protocols in Pharmacology: 5.46.1, entitled “Mouse Models of Bleomycin-induced Pulmonary Fibrosis”. In order to induce pulmonary fibrosis, 6-8 week old C57B1/6 mice or Wistar rats are instilled once oropharyngeally with ˜1.5 U/kg of bleomycin sulfate (Calbiochem, Billerica, Mass.). Briefly, for oropharyngeal administration of bleomycin, mice or rats are anesthetized with isofluorane and then suspended on its back at a˜60 degree angle on an inclined surface with a rubber band running under the upper incisors. The airway is opened while securing the tongue with one arm of padded forceps and bleomycin is administered into the back of the oral cavity with a syringe. The animal's tongue and mouth were held open until the liquid disappeared from the oral cavity. The animal was then returned to its cage and monitored until fully recovered from the anesthesia. The study is terminated on day 14-28 for oropharyngeally administered bleomycin in mice and rats. All animals are euthanized at the termination of the studies by cervical dislocation for gross necropsy, and blood collected by cardiac puncture. The lungs from each animal are dissected from the animal and weighed. The BAL cells and fluid are collected by lavaging the lung twice with 0.5 ml Hanks Balanced Salt Solution (HBSS; VWR, Radnor, Pa.). After collection of BAL cells and fluid, lungs are dissected and removed from each animal. Whole lungs are inflated with 10% NBF and then fixed in 10% NBF for histology. Severity of fibrosis in the lungs is evaluated using a modified Ashcroft score (Hubner, Biotechniques, 2008) and subjective fibrosis scores. Lung sections were graded by averaging 5 microscopic fields at 20× on an Ashcroft scale as follows: Grade 0=normal lung; Grade 1=minimally detectable thickening of alveolar walls; Grade 2=Mild thickening of alveolar walls. Grade 3=moderate contiguous thickening of walls with fibrous nodules; Grade 4=Thickened septae and confluent fibrotic masses that total less than 10% of microscopic field. Grade 5=increased fibrosis with definite damage to lung structure and formation of fibrous bands or small fibrous masses between 10 and 50% of microscopic field; Grade 6=Large contiguous fibrotic masses consolidating more than 50% of microscopic field. Grade 7=severe distortion of structure and large fibrous areas; Grade 8=total fibrous obliteration of lung within microscopic field. Each slide was examined at 20× magnification and the score for 5 separate representative fields was averaged for each animal. Subjective scores (H&E and Trichrome-stained slides) were evaluated at 2× magnification for an overall assessment of pathologic change. A score of 0=no detectible findings to 5=complete involvement of consolidation. Scores in each group were averaged and standard error was calculated using Excel 2010. Dense, organized inflammatory exudates were scored as fibrosis. Other tissues were evaluated microscopically and scored routinely.

SMILES: Cc1ccc(=O)n(-c2ccccc2)c1 [pirfenidone, reference compound]
- % reduction compared to vehicle: −14%
